Results from patent publication US20210094922A1, “Dyes for Analysis of Soluble Protein Aggregates or Misfolded Protein Oligomers” (The Penn State Research Foundation, priority 2018, published 2021).

Experiments:
Assay in all cases: AggTag imaging of Htt-Halo aggregation in HEK293T cells
[1] = molecular target: T1, (UniProt P0A3G2+P42858, A155T/A167V/A172T/A224E/C128F/C176G/D78G/DEL18-38/E160K/E257K/H272N/K175M/K195N/L47V/L88M/N227D/S58T/T264A/Y273L/Y87F); assay type: cell-based, human; details: non-aggregating control
T1 construct: using the Huntingtin exon 1 protein (Htt) with expansion of a polyglutamine tract within its N-terminal domain; expressed in transfected cells; host or cells: HEK293T
T1 sequence (P42858+P0A3G2 fused with the stated changes): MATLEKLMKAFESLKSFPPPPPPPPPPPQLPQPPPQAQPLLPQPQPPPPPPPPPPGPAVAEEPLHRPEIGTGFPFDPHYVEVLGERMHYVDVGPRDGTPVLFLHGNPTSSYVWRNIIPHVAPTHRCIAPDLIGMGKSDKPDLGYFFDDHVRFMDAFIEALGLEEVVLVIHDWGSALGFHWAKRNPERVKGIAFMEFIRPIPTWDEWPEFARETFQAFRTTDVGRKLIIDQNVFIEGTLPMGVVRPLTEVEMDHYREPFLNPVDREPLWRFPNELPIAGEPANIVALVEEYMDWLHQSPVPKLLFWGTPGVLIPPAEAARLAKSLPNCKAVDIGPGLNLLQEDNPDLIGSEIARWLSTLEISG
Protocol: (§1) (a) The dual-probe live cell imaging experiment. Halo-tag fusion proteins were labeled in the presence of both the non-fluorogenic coumarin ligand (1 μM) and 4 (1 µM). The newly synthesized Htt-Halo proteins were equally labeled with either the coumarin ligand or 4. The coumarin ligand is fluorescent both before and after aggregation of Htt-Halo. By contrast, signal of 4 exclusively arises from Htt-Halo aggregates. (b) Dual probes labeling confirms expression of proteins. The Htt Q0-Halo and Htt Q97-Halo proteins were transiently transfected and expressed in HEK293T cells for 24 h, in the presence of 1 μM coumarin Halo-Tag ligand and 1 μM of 4. In cells expressing Htt Q97-Halo proteins, punctate structures in the coumarin channel coincided with the turn-on fluorescence of 4. […] (c) The Htt Q97 protein, without a Halo-Tag, was transiently transfected and expressed in HEK293T cells for 24 h, in the presence of 1 μM of 4. No turn-on fluorescence of 4 was found. Red: fluorescence from the SOD1(V31A)-Halo-4 conjugate. Blue: coumarin Halo-Tag ligand in (a) or nucleus stained by Hoechst 33342 in (b). Scale bar: 10 μm. (d) Fluorescent intensity of cell lysates from samples as represented in FIG. 4d. Error bars: standard error (n=3).
(§2) Confocal microscope imaging. The HEK293T cells were seeded at 25% confluency 24 h prior to transfection in poly-D-lysine coated 35 mm glass bottom dishes (MatTek Corporation). Cells were grown in DMEM media supplemented with 10% FBS and Penicillin-Streptomycin antibiotics until they reached 50-60% confluency. Transfection was carried out using X-tremeGene™ 9 DNA transfection reagent (Roche) according to the manufacturer's instructions. Proteins were expressed for 24 h prior to analyses. To label proteins with Halo-Tag fusion, protein expression was carried out in the presence of 1 μM 4 or 1 μM TMR Halo-Tag ligand to form covalent conjugate with the Halo-Tag domain. For a dual-probe labeling scheme, 1 μM 4 and 1 μM coumarin Halo-Tag ligand to simultaneously form covalent conjugate with the Halo-Tag domain.
(§3) To wash off unbound Halo ligands, the cells were washed extensively by replacing media with fresh DMEM and incubating for 30 min at 37° C. For confocal fluorescence imaging with either 4-labeled Halo fusion, TMR-labeled Halo fusion, EGFP fusion, or mCherry fusion proteins, DMEM media was replaced with FluoroBrite™ DMEM media (ThermoFisher) supplemented with 10% FBS, and Hoechst 33342 (0.1 μg/mL). For confocal fluorescence imaging with either dual-probe labeled Halo fusion with 4 and coumarin ligand, DMEM media was replaced with FluoroBrite™ DMEM media (ThermoFisher) supplemented with 10% FBS. The samples were incubated for 30 min prior to imaging. Media was replaced with fresh FluoroBrite™ DMEM media (ThermoFisher) supplemented with 10% FBS prior to imaging. Confocal images were obtained using Olympus FluoView™ FV1000 confocal microscope. The EGFP fluorescence was visualized using blue argon (488 nm) laser. Nuclear staining and coumarin fluorescence was visualized using violet laser (405 nm). Fluorescence of TMR and 4 were visualized using green HeNe laser (543 nm).

Htt-97Q-Halo [2] = molecular target: T2, Htt-97Q-Halo (Homo sapiens, UniProt P42858); assay type: cell-based; details: non-specific binding control
T2 construct: using the Huntingtin exon 1 protein (Htt) with expansion of a polyglutamine tract within its N-terminal domain; expressed in transfected cells; host or cells: HEK293T
T2 sequence (P42858 with tags, fused parts or gaps): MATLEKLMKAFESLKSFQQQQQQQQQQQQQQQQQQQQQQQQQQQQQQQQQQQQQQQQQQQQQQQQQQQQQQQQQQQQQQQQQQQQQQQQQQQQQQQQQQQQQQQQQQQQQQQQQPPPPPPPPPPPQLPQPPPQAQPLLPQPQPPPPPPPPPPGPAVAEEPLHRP
Protocol: as §1, §2, §3

Htt-97Q-Halo [3] = molecular target: T3, Htt-97Q-Halo (UniProt P0A3G2+P42858, A155T/A167V/A172T/A224E/C128F/C176G/D78G/E160K/E257K/H272N/K175M/K195N/L47V/L88M/N227D/S58T/T264A/Y273L/Y87F); assay type: cell-based, human
T3 construct: using the Huntingtin exon 1 protein (Htt) with expansion of a polyglutamine tract within its N-terminal domain; expressed in transfected cells; host or cells: HEK293T
T3 sequence (P42858+P0A3G2 fused with the stated changes): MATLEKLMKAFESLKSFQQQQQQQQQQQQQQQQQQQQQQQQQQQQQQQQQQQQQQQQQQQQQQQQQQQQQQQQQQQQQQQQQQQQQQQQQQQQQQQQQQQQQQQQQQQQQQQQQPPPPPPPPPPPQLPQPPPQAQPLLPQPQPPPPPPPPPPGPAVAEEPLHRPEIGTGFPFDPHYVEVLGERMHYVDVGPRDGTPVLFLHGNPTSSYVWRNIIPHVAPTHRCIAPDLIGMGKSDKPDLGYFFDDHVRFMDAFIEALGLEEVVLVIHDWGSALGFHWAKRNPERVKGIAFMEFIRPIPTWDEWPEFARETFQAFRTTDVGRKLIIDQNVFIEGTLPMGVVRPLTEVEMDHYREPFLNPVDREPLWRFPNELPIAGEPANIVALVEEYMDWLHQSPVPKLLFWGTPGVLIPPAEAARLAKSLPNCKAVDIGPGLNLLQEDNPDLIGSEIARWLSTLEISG
Protocol: as §1, §2, §3

Htt-97Q-Halo [4] = assay type: cell-based, human; details: control
Protocol: as §1, §2, §3

With `CN(C)c1ccc(/C=C2N=C(/C=C/c3ccc(N(CCO)CCO)cc3)N(CC(=O)N[C@H]3CC[C@H](C(=O)NCCOCCOCCCCCCCl)CC3)C\2=O)cc1` [Compound 4, (1r,4r)-4-(2-((Z)-2-((E)-4-(bis(2-hydroxyethyl)amino)styryl)-4-(4-(dimethylamino)benzylidene)-5-oxo-4,5-dihydro-1H-imidazol-1-yl)acetamido)-N-(2-(2-((6-chlorohexyl)oxy)ethoxy)ethyl)cyclohexanecarboxamide] the “fluorescence in cells expressing Htt-0Q-Halo” value [1] was “dark background”, the “fluorescence in cells expressing Htt-97Q without Halo-Tag” value (Htt-97Q-Halo [2]) was “no fluorescent signal” and the “turn-on fluorescence in cells expressing Htt-97Q-Halo” value (Htt-97Q-Halo [3]) was “observed as puncta without any background diffuse fluorescence”. For the same compound, the “origin of Htt-97Q-Halo fluorescence after fractionation of lysate” value (Htt-97Q-Halo [3]; cell lysate) was “primarily originated from the insoluble fraction” and the “fluorescence in cells co-expressing Htt-Q97-GFP and Halo-Tag or just expressing Htt-Q97” value (Htt-97Q-Halo [4]) was “showed no fluorescence of 4”.
